# Reference: patent US12673052B2, “Combinations for the treatment of cancer” (Exelixis, Inc., priority 2020, dated 2026)
# Read-outs that look alike come from different tables or passages of the source.
# Assays:
# [1] = Single-dose plasma PK, IV and oral (PEG 400:EtOH:RO water); type: in vivo, rats
# Protocol: Plasma PK of Compound 1 was characterized in rats and beagle dogs. Toxicokinetic (TK) evaluations of oral Compound 1 were evaluated in repeat-dose studies in rats and dogs. Plasma protein binding was determined in mouse, rat, dog, monkey, and human plasma in vitro. Biotransformation and metabolite profiling of Compound 1 were investigated in vitro using mouse, rat, dog, monkey, and human liver microsomal fractions and hepatocytes and in vivo in rats and dogs. P-glycoprotein (P-gp) and breast cancer resistance protein (BCRP) transporter interaction studies, in vitro experiments evaluating cytochrome P450 (CYP) induction and inhibition by Compound 1, and CYP and glucuronosyltransferase (UGT) substrate specificity studies of Compound 1 were also performed.
# The PK and TK of Compound 1 were assessed in rats and dogs after intravenous (IV; only single dose PK) and oral (PO) administration of Compound 1 in formulations prepared in polyethylene glycol 400 (PEG 400): ethanol (EtOH): reverse osmosis water (RO Water) (45:5:50 v/v/v).
# Median time to maximum plasma concentration (Tmax) occurred at approximately 2-3 hours in rats and dogs.
# (§1) The mean plasma t1/2, z values were approximately 9 hours in rats and 4 hours in dogs. Interspecies scaling based on body weight to predict PK parameters in humans could not be performed because dogs (larger species) cleared Compound 1 faster than rats (smaller species). Therefore, the human PK was projected based on one species (rat). […] This apparent clearance value (CL/F) was used to predict steady-state exposure (AUC and average plasma concentration [Cavg]) in humans for the proposed first-in-human (FIH) starting dose for Study Compound 1-001.
# [2] = Projection of human PK and steady-state exposure based on one species (rat)
# Protocol: as §1
# The steady-state exposure of Compound 1 in humans for the proposed clinical starting dose of 10 mg daily was projected. At this dose, Compound 1 is projected to yield exposures 54-fold lower than those at the highest non-severely toxic dose (HNSTD) in rats (10 mg/kg qd), the highest dose tested in the GLP 4-week toxicity study. […] Compound 1-related findings at the 10 mg/kg/day dose included bile duct inflammation, hyperplasia and individual hepatocyte necrosis (generally minimal-mild) which were fully reversible following 14 days recovery, as were correlative <2-fold aspartate aminotransferase (AST) and <5-fold alanine aminotransferase (ALT) increases.
structure (smiles),measurement,setting,value
"CNC(=O)c1cc2c(Oc3ccc(NC(=O)C4(C(=O)Nc5ccc(F)cc5)CC4)cc3)ccnc2cc1OC [Compound 1, 1-N′-(4-Fluorophenvl)-1-N-[4-[7-methoxy-6-(methylcarbamovl)quinolin-4-yl]oxyphenyl]cyclopropane-1,1-dicarboxamide]",bioavailability,"[1]; rat, plasma, po, 0.09-0.27 mg/kg, read-out: Oral absolute bioavailability",62 to 77%
same,half-life,"[1]; rat, plasma, after oral administration, read-out: terminal phase half-life (t1/2, z)",4.5 to 5.3 h
same,Tmax,"[1]; rat, plasma, single oral dose, read-out: Median time to maximum plasma concentration (Tmax)",2 to 3 h
same,clearance,"[1]; rat, plasma, single-dose IV 0.09-0.27 mg/kg, read-out: mean plasma clearance (CL) (converted)",0.39 mL/min/kg
same,half-life,"[1]; rat, plasma, single-dose IV, read-out: mean plasma t1/2, z (converted)",~9 h
same,Vd,"[1]; rat, plasma, single-dose IV, read-out: mean volume of distribution at steady-state (Vss)",0.167 L/kg
same,increase of exposure (Cmax and AUC0-inf) with dose,[1]; single oral doses 0.09-0.27 mg/kg,approximately dose proportionally
same,projected apparent CL (CL/F) after oral administration in human,[2]; assuming rat CL=23.4 mL/hr/kg and F=70%,0.557 mL/min/kg
same,projected apparent CL (CL/F) after oral administration in human,[2]; for a 70-kg human,2338 mL/h
same,projected human exposure lower than exposure at HNSTD in rats,[2]; proposed clinical starting dose of 10 mg daily vs 10 mg/kg qd in rats,54 fold
